# Experimental data: PubChem BioAssay AID651703 (Broad Institute, 2012)
# Molecular target: Transforming acidic coiled-coil-containing protein 3 (Homo sapiens) (UniProt Q9Y6A5)
# Experiment: inhibition of ARNT PAS-B/TACC3 complex formation – biochemical, AlphaScreen, cherry-picked samples, confirmation (AID 651703);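 further: TACC3 partner is the GST-tagged E629A mutant dimer; hits lower the signal meaning they disrupt ARNT binding to TACC3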
# Conditions: AlphaScreen His-ARNT PAS-B / GST-TACC3 binding, luminescence
row,AC50 [µM],SMILES
1,4.03,COc1cccc(CNC(=O)CSc2ccc(-c3ccccn3)nn2)c1
2,12.5,CCN(CC)c1ccc(/C=N/NC(=O)c2ccc3nc[nH]c3c2)c(O)c1
3,3.01,Cc1ccc(S(=O)(=O)CCc2nnc(NC(=O)c3ccccn3)s2)cc1
4,19,COc1cc(OC)c(C(=O)OCC(=O)Nc2nnc(-c3ccccc3)o2)cc1OC
5,5.32,O=C(CSc1ccc(-c2ccccn2)nn1)N1CCCc2ccccc21
6,45.6,CS(=O)(=O)c1cccc(C(=O)Nc2nnc(C3=COCCO3)o2)c1
7,1.22,Oc1ccc(CNC2CCc3ccccc32)c2cccnc12 (configuration not stated)
8,14.4,Cc1ccsc1C(=O)OCC(=O)Nc1nnc(-c2ccccc2)o1
9,2.07,Cc1ccc(C(=O)Nc2nc(-c3ccccn3)cs2)o1
10,28.6,O=C(CSc1ccc2nnc(-c3ccccn3)n2n1)Nc1ccccc1F
11,1.21,CC1CCN(S(=O)(=O)c2ccc(C(=O)Nc3nnc(C4=COCCO4)o3)cc2)CC1
12,16.5,O=C(COc1ccccc1)Nc1nnc(-c2ccccc2)o1
13,1.1,O=C(CN1CC(=O)Oc2ccccc21)OCC(=O)c1ccccc1
14,16.4,C/C(=N\NC(=O)c1c[nH]c2ccccc12)c1ccc(C)o1
15,12.6,Cc1cccc(C(=O)Nc2nnc(C3=COCCO3)o2)c1
16,70,C[C@@H]1CN([C@H](C)CO)S(=O)(=O)c2ccc(C3=CCCC3)cc2O[C@H]1CN(C)Cc1ccccn1
17,15.2,O=S(=O)(NC1CCN(Cc2ccc(OCCO)cc2)CC1)c1cccc2cccnc12

row,AC50 [µM],SMILES
1,12.7,COc1ccc(NC(=O)N[C@@H]2CC[C@H](CCn3cc(-c4ccccn4)nn3)O[C@H]2CO)cc1
2,27.7,O=C(c1ccccn1)N1CC[C@@H]2[C@H]1c1cc(Br)ccc1N[C@@H]2CO
3,4.77,O=C(Cn1cnc([N+](=O)[O-])n1)N/N=C/c1cc(Cl)ccc1O
4,18.4,O=C(Nc1nnc(C2CC2)o1)c1ccc(S(=O)(=O)N2CCCCC2)cc1
5,55.5,O=S(=O)(c1ccccc1)c1nc(-c2ccco2)oc1Nc1ccccc1
6,40.8,NC(=O)CSc1nnc(-c2ccc(O)cc2)n1Cc1ccco1
7,2.93,O=C(CSc1ccc(-c2ccccn2)nn1)Nc1nccs1
8,12.2,O=C(N[C@@H]1CC[C@H](CCn2cc(-c3ccccn3)nn2)O[C@H]1CO)c1cccnc1
9,13.4,O=S(=O)(N[C@@H]1CC[C@@H](CCn2cc(-c3ccccn3)nn2)O[C@@H]1CO)c1cccc(F)c1
10,59,Nc1nc(CN2CCCCCC2)nc(Nc2ccccc2)n1
11,13,O=C(N[C@H]1CC[C@H](CCn2cc(-c3ccccn3)nn2)O[C@@H]1CO)c1ccccc1
12,12.2,CC(=O)Nc1cccc(C(=O)O)n1
13,< 0.5,c1ccc(-c2nnc(-c3ccccn3)nc2N2CCC(N3CCOCC3)CC2)cc1
14,10.9,O=S(=O)(N[C@H]1CC[C@@H](CCn2cc(-c3ccccn3)nn2)O[C@@H]1CO)c1cccc(F)c1
15,11.2,O=C(CSc1ccc2nnc(-c3ccccn3)n2n1)Nc1nccs1
16,14.1,C=CCn1c(Cc2csc(N)n2)nnc1SCC(=O)Nc1ccc(C(=O)OCC)cc1

# The remaining lines, values behind:
row,SMILES,AC50 [µM]
1,c1ccc(-c2nnc(-c3ccccn3)nc2Nc2nc3ccccc3s2)cc1,0.509
2,C(=N\Nc1ccc2nncn2n1)/c1ccccn1,14
3,C[C@@H](Nc1nc(-c2ccccn2)nnc1-c1ccccc1)c1ccccc1,0.77
4,CC1(C)Cc2c(sc3nc4n(-c5ccccc5)c(=O)c(CCC(=O)O)nn4c(=O)c23)CO1,19.2
5,CCOc1ccc(N(CC(=O)Nc2ccc(OC)cc2OC)S(=O)(=O)c2c(C)[nH]c(=O)[nH]c2=O)cc1,27.6
6,Cc1ccc(/C=N/Nc2cn[nH]c(=O)n2)o1,26.3
7,Nc1[nH]c(=O)nc(Nc2ccccc2)c1N=O,21.2
8,COc1cccc(/C=N/n2c(-c3n[nH]c4c3CCC4)n[nH]c2=S)c1O,28.7
9,O=C(N/N=C/c1cc(Cl)ccc1O)c1cccnc1,7.68
10,CC(=O)NC(C)c1cc(Cl)c2cccnc2c1O (configuration not stated),6.14
11,Cc1ccc(C)c(NC(=O)CSc2n[nH]c(-c3ccccn3)n2)c1,0.574
12,Nc1nc(-c2ccccn2)nc(N)c1Cc1ccccc1F,3.39
13,CC(=O)/C(=N\Nc1ccc(Cl)cc1Cl)Sc1cccc2cccnc12,2.95
14,Cc1ccc(Nc2c(-c3ccccn3)nc3cc(C)ccn23)cc1,3.02
15,Cc1[nH]n(-c2ccccc2)c(=O)c1/C=N/NC(=O)c1cccc(F)c1,9.69
16,N[C@@H]1CC[C@@H](CCn2cc(-c3ccccn3)nn2)O[C@H]1CO,0.565
17,Oc1ccccc1C(Nc1nccs1)c1ccc2cccnc2c1O (configuration not stated),4.85
18,Cc1c(Cl)cccc1-c1ccc(CNCc2ccccn2)o1,35.2
19,c1ccc(-c2cnc(Nc3nc(-c4ccccn4)nnc3-c3ccccc3)s2)cc1,0.916
20,Oc1cc(Nc2ccncc2)cc2cccnc12,0.676
21,CC(=O)c1cccc(-c2ccc3c(=O)[nH]c(Nc4ccccc4)cc3c2)c1,23.1
22,Cc1ccccc1C(=O)Nc1cccc(C(=O)N/N=C/c2cc(Cl)cc([N+](=O)[O-])c2O)c1,40
23,Cn1nc(-c2ccccn2)nc2c(=O)n(C)c(=O)nc1-2,< 0.5
24,C=C1c2cccc(O)c2C(=O)C2C(=O)[C@]3(O)C(=O)C(C(N)=O)C(=O)[C@@H](N(C)C)[C@@H]3[C@@H](O)[C@H]12 (some centres not stated),21.2
25,N/C(=N\OC(=O)Cc1ccc([N+](=O)[O-])cc1)c1ccccn1,21.5

row,SMILES,AC50 [µM]
1,CCCCCOc1ccc(NC(=O)CSc2cccc3cccnc23)cc1,9.17
2,O=C(COc1ccccc1F)Nc1nc(-c2ccccn2)cs1,8.38
3,CCC(=O)NC(c1ccc(N(C)C)cc1)c1c(O)ccc2ccccc12 (configuration not stated),35.5
4,CC(C)(C)CCNC(=O)c1cc(-c2ccccc2)on1,21.5
5,Cc1ccccc1CSc1nnc(-c2ccccn2)n1N,31.7
6,O=c1cc(CSc2ccc(Cl)cc2)nc(-c2ccccn2)[nH]1,3.69
7,C[C@@H]1CN([C@H](C)CO)C(=O)Cc2cc(N(C)C)ccc2O[C@H]1CN(C)Cc1ccc(Oc2ccccc2)cc1,27.5
8,COc1cc(NCCCCCCN)c2ncccc2c1OC,16.1
9,Cc1ccccc1CNc1nc(-c2ccccn2)nnc1-c1ccccc1,0.647
10,O=C(COC(=O)c1ccccn1)c1cccc(Br)c1,11.8
11,COc1ccc2nc(/N=C/c3c(C)[nH]n(-c4ccc(C)cc4)c3=O)sc2c1,46.3
12,Cc1nc2ncccn2c1-c1csc(Nc2ccc(O)cc2)n1,4.61
13,O=C(COC(=O)c1ccc([N+](=O)[O-])s1)NCc1ccccc1,37
14,Cc1[nH]n(-c2ccccc2)c(=O)c1/C=N/N(c1ccccc1)c1ccccc1,16.2
15,CCOC(=O)c1c(OCC)[nH]c2c1cc(O)c1ccccc12,56.9
16,COc1ccc(Nc2cc3n(c(=O)n2)CCc2cc(OC)c(OC)cc2-3)cc1,68.6
17,Oc1c(I)cc(I)c2cccnc12,7.46
18,CCOc1cccc(/C=N/NC(=O)c2cc(-c3cccn3C)n[nH]2)c1O,17.1
19,Cc1c(CCO)c(=O)n(-c2ccccc2)n1S(=O)(=O)c1c(Cl)cc(Cl)cc1Cl,39.8
20,N[C@@H]1CC[C@H](CCn2cc(-c3ccccn3)nn2)O[C@H]1CO,1.13
21,O=C(O)c1cn[nH]c1-n1cnnn1,40.6
22,Cc1cccnc1Nc1nc(-c2ccccn2)cs1,0.756
23,CCOc1ccc(NC(=O)CC(NCc2ccccn2)C(=O)O)cc1 (configuration not stated),< 0.5
24,C=CCn1c(CNc2ccccc2)nnc1SCC(=O)N/N=C/c1ccc(O)cc1O,25.1
